Consider 15 compounds from PubChem BioAssay (NCI).

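48-hour exposure; five concentrations; linearly interpolated endpoints. GI50 is the concentration that inhibits growth by half. TGI: concentration producing complete growth inhibition.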

Some test systems named below: UACC-257 melanoma; NCI-H23 lung; KM12 colon; T-47D breast; SW-620 colon; MOLT-4 leukemia; ACHN renal; SK-MEL-5 melanoma; SNB-19 CNS; SNB-75 CNS.
Common to all, as to assay: growth of human tumour cells (NCI), 48 h

As for `CCN1C(=O)N(CC)C2Nn3c(s/c(=C4\C(=O)N(C)c5ccccc54)c3=O)=NC21` (stereo not drawn), the GI50 with UACC-257 melanoma is 7.71 µM; in the test with NCI-H23 lung, 3.38 µM; in the test with KM12 colon, 2.91 µM; in the test on T-47D breast, 3.14 µM; with SW-620 colon it was 1.52 µM; with MOLT-4 leukemia it was 3.92 µM. Further, the GI50 is 3.42 µM in the test with ACHN renal and 4.61 µM in the test on SK-MEL-5 melanoma. The TGI in the test on UACC-257 melanoma, in the test on NCI-H23 lung, in the test on KM12 colon, in the test with T-47D breast, with SW-620 colon and in the test with MOLT-4 leukemia was above 100 µM each time. The TGI with ACHN renal and in the test on SK-MEL-5 melanoma was above 100 µM in each case.

As to `Nc1nc(Nc2ccc(Cl)cc2)sc1C(=O)c1cccs1`, the TGI in the test with UACC-257 melanoma, with NCI-H23 lung, in the test on KM12 colon, in the test with T-47D breast, in the test on SW-620 colon and with MOLT-4 leukemia was above 100 µM each time. Moreover, the TGI was 47.6 µM with SNB-19 CNS, above 100 µM in the test on ACHN renal and above 100 µM with SK-MEL-5 melanoma.

Consider `C[C@]12CC[C@H](O)C=C1CC[C@@H]1[C@@H]2CC[C@]2(C)C(c3ccc(=O)oc3)CC[C@]12O` (stereo partly drawn), for which the TGI with UACC-257 melanoma was 0.0777 µM; in the test on NCI-H23 lung, 0.023 µM; in the test on KM12 colon it was 0.129 µM; in the test on SW-620 colon, 0.362 µM; in the test with MOLT-4 leukemia, below 0.0125 µM; in the test with SNB-19 CNS, 0.237 µM. Besides, the TGI in the test with SNB-75 CNS stood at 0.0736 µM; in the test on SK-MEL-5 melanoma, 0.0163 µM.

`CN(C)P(=O)(Oc1occc1C(O)Cc1ccccc1)N(C)C` (stereo not drawn): the TGI with UACC-257 melanoma, with NCI-H23 lung, in the test with KM12 colon, with T-47D breast, in the test on SW-620 colon and with SNB-19 CNS was above 100 µM in each case. Besides, the TGI with SNB-75 CNS, in the test on ACHN renal and in the test on SK-MEL-5 melanoma was above 100 µM in each case.

Take `CCCOC(=O)NC(C)C(=O)NC(CCC(=O)NC(CCCC(N)C(=O)O)C(=O)NC(C)C(=O)O)C(=O)O` (stereo not drawn): the TGI in the test with NCI-H23 lung was above 100 µM; in the test with KM12 colon, 27.4 µM; in the test on T-47D breast, 41.7 µM; in the test on SW-620 colon, 62.3 µM; in the test with MOLT-4 leukemia it was 41.9 µM; in the test with SNB-19 CNS, 71 µM. Moreover, the TGI in the test with ACHN renal is above 100 µM; with SK-MEL-5 melanoma, 30.5 µM.

For the compound `NC(=O)c1ncn2c1NC(=O)CC2`, the TGI in the test with UACC-257 melanoma, in the test with NCI-H23 lung, with KM12 colon, with SW-620 colon, with MOLT-4 leukemia and with SNB-19 CNS was above 100 µM throughout. Further, the TGI with SNB-75 CNS and with SK-MEL-5 melanoma was above 100 µM each time.

As for `CC1=CC(=O)CC2(C)CCC(C(C)CC(=O)CC(C)C)CC12` (stereo not drawn), the TGI in the test on UACC-257 melanoma is 64.1 µM; in the test with NCI-H23 lung, above 100 µM; with KM12 colon, 36.4 µM; in the test with SW-620 colon it was 46 µM; in the test on MOLT-4 leukemia it was 40.6 µM; with SNB-19 CNS it was above 100 µM. Also, the TGI is above 100 µM in the test with SNB-75 CNS, 31.3 µM with ACHN renal and 36.4 µM with SK-MEL-5 melanoma.

For `O=C(O)CSC(NC(=O)C(C(F)(F)F)C(F)(F)F)(C(F)(F)F)C(F)(F)F`, the TGI in the test on UACC-257 melanoma, in the test on NCI-H23 lung, with T-47D breast, in the test on SW-620 colon, with MOLT-4 leukemia and with SNB-19 CNS was above 100 µM throughout. In addition, the TGI in the test with SNB-75 CNS, with ACHN renal and in the test on SK-MEL-5 melanoma was above 100 µM each time.

`CC(C)(C)OC(=O)C1C(=O)NC(=O)CC1C(COCc1ccccc1)OCc1ccccc1` (stereo not drawn): the TGI with UACC-257 melanoma was found to be 41.4 µM; in the test on NCI-H23 lung it was 92.6 µM; in the test on KM12 colon, 36.7 µM; in the test on T-47D breast it was 38.7 µM; in the test on SW-620 colon, 65.1 µM; in the test on MOLT-4 leukemia, 52.9 µM. Moreover, the TGI is above 100 µM in the test with SNB-19 CNS, 50.7 µM in the test on ACHN renal and 31.1 µM in the test on SK-MEL-5 melanoma.

With `COc1ccc(/C=N/N2C(=O)c3c(N)c(C#N)c(-c4ccccc4)c(-c4ccccc4)c3C2=O)cc1`, the TGI with UACC-257 melanoma, in the test on KM12 colon, in the test on T-47D breast, in the test on SW-620 colon, in the test with MOLT-4 leukemia and in the test on SNB-19 CNS was above 100 µM in each case. For the same compound, the TGI in the test on SNB-75 CNS, in the test with ACHN renal and in the test with SK-MEL-5 melanoma was above 100 µM each time.

`CCOC(=O)[C@@H]1ON2O[C@@H](OC3CCCC3(c3ccccc3)c3ccccc3)C[C@H]3OC(=O)[C@@H]1C32` (stereo partly drawn): the TGI was 50.6 µM in the test with UACC-257 melanoma; 37.2 µM with NCI-H23 lung; 29 µM in the test on KM12 colon; 69.1 µM with T-47D breast; 64.5 µM in the test on SW-620 colon; above 100 µM with MOLT-4 leukemia. Also, the TGI is above 100 µM in the test with SNB-75 CNS, 37 µM in the test with ACHN renal and above 100 µM in the test with SK-MEL-5 melanoma.

For `COc1cc2c(c(O)c1O)-c1ccc(OC)c(=O)cc1C(NC(C)=O)CC2` (stereo not drawn), the TGI with UACC-257 melanoma is above 100 µM; with NCI-H23 lung, 54.7 µM; with KM12 colon it was 25.7 µM; with SW-620 colon it was 51.6 µM; in the test on MOLT-4 leukemia, above 64.3 µM; with SNB-19 CNS it was above 100 µM. For the same compound, the values for the TGI with SNB-75 CNS, in the test with ACHN renal and with SK-MEL-5 melanoma were 16.6 µM, above 100 µM and 16.2 µM, respectively.

As for `O=C(CCc1cccc(O)c1)NCCCNC(=O)CCc1cccc(O)c1`, the TGI with UACC-257 melanoma, in the test on NCI-H23 lung, with KM12 colon, in the test on T-47D breast, in the test with SW-620 colon and in the test on MOLT-4 leukemia was above 100 µM each time. In addition, the TGI in the test on SNB-19 CNS, in the test with ACHN renal and in the test with SK-MEL-5 melanoma was above 100 µM each time.

As to `O=C(O)CC(NC(=O)/C(=C/c1ccccc1O)NC(=O)c1ccccc1)C(=O)O` (stereo not drawn), the TGI in the test on UACC-257 melanoma, with NCI-H23 lung, in the test on KM12 colon, in the test with T-47D breast, in the test with SW-620 colon and with MOLT-4 leukemia was above 100 µM each time. Besides, the TGI in the test on SNB-75 CNS, in the test with ACHN renal and in the test on SK-MEL-5 melanoma was above 100 µM each time.

For the compound `COC(=O)C1=C(O)C(C(=O)OC)[C@@]2(O)[C@@H](C(=O)OC)[C@H](C)[C@@H](C)[C@@H]1[C@@H]2C(=O)OC` (stereo partly drawn), the TGI in the test with UACC-257 melanoma, in the test on NCI-H23 lung, in the test with KM12 colon, in the test on T-47D breast, with MOLT-4 leukemia and in the test on SNB-19 CNS was above 100 µM throughout. Further, the TGI in the test with SNB-75 CNS and in the test on ACHN renal was above 100 µM each time.
